# Test results taken from PubChem BioAssay AID256 (DTP/NCI, 2004).
# “And” between values parts separate entries of the source, which are not always exact repeats. Equal entries are not always repeated. Toxic doses and inconclusive results are not listed.
# System: CD2F1 mice, L1210 leukemia ip, survival T/C
# Experiment: NCI In Vivo Anticancer Drug Screen. Data for tumor model L1210 Leukemia (intraperitoneal) in CD2F1 (CDF1) mice
# Settings: higher = longer survival
# In short: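 Ratio T/C, where T is the treated-group value and C the vehicle-dosed control value, from mice implanted with a transplantable tumor.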
# [1] = endpoint: mean survival time, dose: 100.0 mg/kg/injection, schedule: Q01DX009 (ip), vehicle: saline with Tween-80
# [2] = endpoint: mean survival time, dose: 100.0 mg/kg/injection, schedule: Q04DX003 (ip), vehicle: saline with Tween-80
# [3] = endpoint: mean survival time, dose: 200.0 mg/kg/injection, schedule: Q01DX009 (ip), vehicle: saline with Tween-80
# [4] = endpoint: mean survival time, dose: 200.0 mg/kg/injection, schedule: Q04DX003 (ip), vehicle: saline with Tween-80
# [5] = endpoint: mean survival time, dose: 400.0 mg/kg/injection, schedule: Q01DX009 (ip), vehicle: saline with Tween-80
# [6] = endpoint: mean survival time, dose: 400.0 mg/kg/injection, schedule: Q04DX003 (ip), vehicle: saline with Tween-80
# [7] = endpoint: mean survival time, dose: 100.0 mg/kg/injection, schedule: Q01DX001 (ip), vehicle: saline with Tween-80
# [8] = endpoint: mean survival time, dose: 200.0 mg/kg/injection, schedule: Q01DX001 (ip), vehicle: saline with Tween-80
# [9] = endpoint: mean survival time, dose: 400.0 mg/kg/injection, schedule: Q01DX001 (ip), vehicle: saline with Tween-80
# [10] = endpoint: mean survival time, dose: 50.0 mg/kg/injection, schedule: Q01DX009 (ip), vehicle: saline with Tween-80
# [11] = endpoint: mean survival time, dose: 25.0 mg/kg/injection, schedule: Q01DX009 (ip), vehicle: saline with Tween-80
# [12] = endpoint: mean survival time, dose: 25.0 mg/kg/injection, schedule: Q04DX003 (ip), vehicle: saline with Tween-80
# [13] = endpoint: mean survival time, dose: 50.0 mg/kg/injection, schedule: Q04DX003 (ip), vehicle: saline with Tween-80
# [14] = endpoint: mean survival time, dose: 200.0 mg/kg/injection, schedule: Q04DX002 (ip), vehicle: saline with Tween-80
# [15] = endpoint: mean survival time, dose: 100.0 mg/kg/injection, schedule: Q04DX003 (ip), vehicle: saline
# [16] = endpoint: mean survival time, dose: 200.0 mg/kg/injection, schedule: Q04DX003 (ip), vehicle: saline
# [17] = endpoint: mean survival time, dose: 400.0 mg/kg/injection, schedule: Q04DX003 (ip), vehicle: saline
# [18] = endpoint: mean survival time, dose: 100.0 mg/kg/injection, schedule: Q04DX002 (ip), vehicle: saline with Tween-80
# [19] = endpoint: mean survival time, dose: 400.0 mg/kg/injection, schedule: Q04DX002 (ip), vehicle: saline with Tween-80
structure (smiles),measurement,setting,value
S=C1NCCO1,T/C,[1],100 % of control and 95 % of control
same,T/C,[2],95 % of control
same,T/C,[3],91 % of control and 97 % of control
same,T/C,[4],93 % of control
same,T/C,[5],112 % of control
same,T/C,[6],104 % of control
COC(C(O)C=O)C(O)C(O)CO (stereo unspecified),T/C,[2],96 % of control
same,T/C,[4],101 % of control
same,T/C,[6],95 % of control
COC(=O)CCS/C=C/C(=O)O,T/C,[7],97 % of control
same,T/C,[8],100 % of control
same,T/C,[9],97 % of control
O=S(=O)(CC(I)c1ccccc1)c1ccccc1 (stereo unspecified),T/C,"endpoint: mean survival time, dose: 75.0 mg/kg/injection, schedule: Q01DX009 (ip), vehicle: saline",99 % of control
same,T/C,"endpoint: mean survival time, dose: 150.0 mg/kg/injection, schedule: Q01DX009 (ip), vehicle: saline",91 % of control
same,T/C,"endpoint: mean survival time, dose: 300.0 mg/kg/injection, schedule: Q01DX009 (ip), vehicle: saline",92 % of control
O=P1(N(CCCl)CCCl)OCCC(c2ccccc2)N1Cl (stereo unspecified),T/C,"endpoint: mean survival time, dose: 43.75 mg/kg/injection, schedule: Q01DX001 (ip), vehicle: distilled water + Tween-80",106 % of control
same,T/C,"endpoint: mean survival time, dose: 87.5 mg/kg/injection, schedule: Q01DX001 (ip), vehicle: distilled water + Tween-80",103 % of control
same,T/C,"endpoint: mean survival time, dose: 175.0 mg/kg/injection, schedule: Q01DX001 (ip), vehicle: distilled water + Tween-80",106 % of control
same,T/C,"endpoint: mean survival time, dose: 350.0 mg/kg/injection, schedule: Q01DX001 (ip), vehicle: distilled water + Tween-80",110 % of control
O=C(C/C(=N\C(=S)Nc1cc(C(F)(F)F)ccc1Cl)NO)N1CCCC1,T/C,"endpoint: median survival time, dose: 12.5 mg/kg/injection, schedule: Q01DX009 (ip), vehicle: saline with Tween-80",101 % of control
same,T/C,"endpoint: median survival time, dose: 25.0 mg/kg/injection, schedule: Q01DX009 (ip), vehicle: saline with Tween-80",97 % of control and 105 % of control
same,T/C,"endpoint: median survival time, dose: 50.0 mg/kg/injection, schedule: Q01DX009 (ip), vehicle: saline with Tween-80",102 % of control (2×) and 106 % of control
same,T/C,"endpoint: median survival time, dose: 100.0 mg/kg/injection, schedule: Q01DX009 (ip), vehicle: saline with Tween-80",108 % of control and 109 % of control
same,T/C,"endpoint: median survival time, dose: 200.0 mg/kg/injection, schedule: Q01DX009 (ip), vehicle: saline with Tween-80",121 % of control and 122 % of control and 123 % of control
same,T/C,"endpoint: median survival time, dose: 300.0 mg/kg/injection, schedule: Q01DX009 (ip), vehicle: saline with Tween-80",86 % of control
CCOC(CC)c1ccccc1 (stereo unspecified),T/C,[10],103 % of control
same,T/C,[1],103 % of control
same,T/C,[3],106 % of control
O=c1[nH]cc(Br)c2sccc12,T/C,[10],102 % of control
same,T/C,[1],104 % of control
CC(C)Cc1ccc(OC(=O)Nc2ccc(Cl)cc2)cc1,T/C,[11],106 % of control
same,T/C,[10],94 % of control
same,T/C,[1],95 % of control
same,T/C,[2],86 % of control
N#CC(c1ccccn1)N1CCOCC1 (stereo unspecified),T/C,"endpoint: mean survival time, dose: 12.5 mg/kg/injection, schedule: Q04DX002 (ip), vehicle: saline with Tween-80",97 % of control and 100 % of control
same,T/C,[12],104 % of control
same,T/C,"endpoint: mean survival time, dose: 50.0 mg/kg/injection, schedule: Q01DX001 (ip), vehicle: saline with Tween-80",100 % of control
same,T/C,[10],89 % of control and 103 % of control
same,T/C,[13],109 % of control
same,T/C,[7],94 % of control
same,T/C,[1],89 % of control and 95 % of control
same,T/C,[2],107 % of control
same,T/C,[8],100 % of control
same,T/C,[14],98 % of control
CCC(CC)C(=O)OCCCCOC(=O)C(CC)CC,T/C,[15],93 % of control
same,T/C,[16],107 % of control
same,T/C,[17],107 % of control
CSc1ncnc2c1nnn2C1OC(COC(=O)c2ccccc2)C(OC(=O)c2ccccc2)C1OC(=O)c1ccccc1 (stereo unspecified),T/C,"endpoint: median survival time, dose: 12.5 mg/kg/injection, schedule: Q01DX005 (ip), vehicle: Klucel (hydroxypropylcellulose) (HPC)",94 % of control
same,T/C,"endpoint: median survival time, dose: 25.0 mg/kg/injection, schedule: Q01DX005 (ip), vehicle: Klucel (hydroxypropylcellulose) (HPC)",104 % of control
same,T/C,"endpoint: median survival time, dose: 50.0 mg/kg/injection, schedule: Q01DX005 (ip), vehicle: Klucel (hydroxypropylcellulose) (HPC)",116 % of control and 123 % of control
same,T/C,"endpoint: median survival time, dose: 100.0 mg/kg/injection, schedule: Q01DX005 (ip), vehicle: Klucel (hydroxypropylcellulose) (HPC)",116 % of control
same,T/C,"endpoint: median survival time, dose: 400.0 mg/kg/injection, schedule: Q01DX005 (ip), vehicle: Klucel (hydroxypropylcellulose) (HPC)",164 % of control
c1ccc(OCCOc2ccccc2)cc1,T/C,[13],98 % of control
same,T/C,[2],89 % of control
same,T/C,[4],91 % of control
CC(=O)C1=C(C)NC(C)=C(C(C)=O)C1c1cccc([N+](=O)[O-])c1,T/C,[2],94 % of control
same,T/C,[4],91 % of control
same,T/C,[6],96 % of control
COc1ccc(N=NNc2ccc(OC)cc2)cc1,T/C,"endpoint: mean survival time, dose: 6.25 mg/kg/injection, schedule: Q01DX009 (ip), vehicle: saline with Tween-80",100 % of control
same,T/C,"endpoint: mean survival time, dose: 12.5 mg/kg/injection, schedule: Q01DX009 (ip), vehicle: saline with Tween-80",96 % of control
same,T/C,[11],102 % of control
Cc1cc(C)[nH]c(=S)n1.[Pd],T/C,"endpoint: mean survival time, dose: 3.12 mg/kg/injection, schedule: Q04DX003 (ip), vehicle: saline",97 % of control
same,T/C,"endpoint: mean survival time, dose: 6.25 mg/kg/injection, schedule: Q04DX003 (ip), vehicle: saline",102 % of control
same,T/C,"endpoint: mean survival time, dose: 12.5 mg/kg/injection, schedule: Q04DX003 (ip), vehicle: saline",100 % of control
same,T/C,"endpoint: mean survival time, dose: 25.0 mg/kg/injection, schedule: Q04DX003 (ip), vehicle: saline",103 % of control
same,T/C,"endpoint: mean survival time, dose: 50.0 mg/kg/injection, schedule: Q04DX003 (ip), vehicle: saline",102 % of control
same,T/C,[15],105 % of control
same,T/C,[16],102 % of control
O=C1CCC/C1=C/c1ccco1,T/C,[11],93 % of control
same,T/C,[10],95 % of control
same,T/C,[1],86 % of control and 90 % of control
CCC(CC)(CC)CCS(=O)[O-].[C-]#[O+].[C-]#[O+].[Fe+6].[c-]1[c-][c-][cH-][c-]1,T/C,"endpoint: mean survival time, dose: 50.0 mg/kg/injection, schedule: Q04DX002 (ip), vehicle: saline with Tween-80",93 % of control
same,T/C,[18],93 % of control
same,T/C,[14],104 % of control
Nc1cncc([N+](=O)[O-])c1N,T/C,[7],98 % of control
same,T/C,[8],101 % of control
same,T/C,[9],101 % of control
NC(N)=NCC(=O)O,T/C,[2],94 % of control
same,T/C,[4],102 % of control
same,T/C,[6],98 % of control
C=Cc1cnc(N)nc1-c1ccc(OC)cc1,T/C,[18],101 % of control
same,T/C,[14],96 % of control
same,T/C,[19],96 % of control
CC1(C)N=C(N)N=C(N)N1c1cc(Cl)cc(CCNC(=O)Nc2ccc(S(=O)(=O)F)cc2)c1,T/C,[7],92 % of control
Nc1cccc2ccc(S(=O)(=O)O)cc12,T/C,[1],101 % of control
same,T/C,[3],106 % of control
CCCCNP(=S)(NCCCC)NCCCC,T/C,[18],94 % of control
same,T/C,[14],94 % of control
same,T/C,[19],98 % of control
Cc1ccc(S(=O)(=O)OCC(OS(=O)(=O)c2ccc(C)cc2)C(O)C(O)C(O)CO)cc1 (stereo unspecified),T/C,[2],97 % of control
same,T/C,[4],91 % of control
same,T/C,[6],91 % of control
O=c1c2ccccc2oc2ccccc12,T/C,[10],95 % of control
same,T/C,[1],100 % of control
same,T/C,[3],93 % of control
CC(C#N)(Nc1ccccc1)c1ccccn1 (stereo unspecified),T/C,[2],101 % of control
same,T/C,[4],93 % of control
same,T/C,[6],89 % of control
C1CC2CCC3CCCC4CCC(C1)C2C34 (stereo unspecified),T/C,[10],98 % of control
same,T/C,[1],98 % of control
same,T/C,[2],98 % of control
same,T/C,[3],100 % of control
same,T/C,[4],102 % of control
Cc1ccc(NC(=O)c2cccc(Cl)c2)c(C)c1,T/C,[1],100 % of control
same,T/C,[2],96 % of control
same,T/C,[3],94 % of control
same,T/C,[4],100 % of control
same,T/C,[5],96 % of control
same,T/C,[6],93 % of control
CCCCCCCCCCCCCCCc1nnc(SC)s1,T/C,[10],95 % of control
same,T/C,[1],88 % of control
same,T/C,[2],91 % of control
same,T/C,[4],87 % of control
same,T/C,[6],96 % of control
O=C(O)CCC(=O)CCC(=O)c1ccccc1,T/C,[10],96 % of control
same,T/C,[1],98 % of control
same,T/C,[2],91 % of control
same,T/C,[3],98 % of control
CCCCN(CCCC)C1=C(Cl)C(=O)c2ccccc2C1=O,T/C,[12],98 % of control
same,T/C,[13],98 % of control
same,T/C,[2],91 % of control
O=C(O)CSCSCC(=O)O,T/C,[15],97 % of control
same,T/C,[16],100 % of control
same,T/C,[17],97 % of control
CCOP(=S)(OCC)N1c2ccccc2Sc2ccccc21,T/C,[10],95 % of control
same,T/C,[1],90 % of control
